Measured values from paper PMC9828517 (Angewandte Chemie (International Ed. in English), 2022).

target: T1, recombinant SIRT5 (His-tagged, Millipore) (Homo sapiens, UniProt Q9NXA8); test: Mass spectrometry determination of covalent labeling; assay type: binding; conditions: Tris buffer pH 8, 24 h room temperature (7, 8: 37 °C, 48 h)
T1 sequence (Q9NXA8 37-310): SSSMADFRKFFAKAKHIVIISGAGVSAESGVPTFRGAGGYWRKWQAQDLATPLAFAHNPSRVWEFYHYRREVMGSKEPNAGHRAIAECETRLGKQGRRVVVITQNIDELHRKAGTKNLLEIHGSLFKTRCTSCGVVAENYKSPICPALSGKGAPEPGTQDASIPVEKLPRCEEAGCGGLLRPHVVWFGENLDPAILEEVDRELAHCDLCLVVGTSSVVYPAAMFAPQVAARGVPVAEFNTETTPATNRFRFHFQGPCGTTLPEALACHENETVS

Compound | covalent conjugate formation with SIRT5 (MALDI-TOF MS)
O=C(NCCCC[C@H](NS(=O)(=O)c1cccc(F)c1)C(=O)N[C@@H](Cc1c[nH]c2ccccc12)C(=O)NC1CCC1)c1cccc(S(=O)(=O)F)c1 [compound 2] | reacted more readily with SIRT5
O=C(NC1CCC1)[C@H](Cc1c[nH]c2ccccc12)NC(=O)[C@H](CCCCNC(=S)Nc1ccc(OS(=O)(=O)F)cc1)NS(=O)(=O)c1cccc(F)c1 [compound 8] | not significantly enhanced compared to the amide analogs
O=C(NC1CCC1)[C@H](Cc1c[nH]c2ccccc12)NC(=O)[C@H](CCCCNC(=S)Nc1cccc(OS(=O)(=O)F)c1)NS(=O)(=O)c1cccc(F)c1 [compound 7] | not significantly enhanced compared to the amide analogs
